Source: patent publication EP2157088A1, “INDICYANINE DYES AND THE DERIVATIVES THEREOF FOR ANALYSING BIOLOGICAL MICROMOLECULES” (UCHREZHDENIE ROSSIISKOI AKADEMII NAUK INSTITUT …, priority 2007, dated 2008)
Counter-ions that a name gives are not always drawn.

Key:
Type in all cases: physicochemical
[1] = Absorption and fluorescence maxima of the dyes
Description: An insertion of methyl group at 5- and 7-positions of indolenyne cycle produces a bathochromic shift in the absorption and fluorescent spectra. As to the rest sulfur containing dyes, the spectral characteristics thereof appear to be in the same range (between about λmax 648 nm and λem 669 nm) (Fig. 1),

[2] = Molar extinction coefficient in methanol and PBS; design: ε·10^-5: unit not given here
Method: For all indodicarbocyanine dyes (I) (A1) - (A30) and (B1) - (B7) of the invention, there are determined the molar extinction coefficients in methanol and in aqueous phosphate buffered saline (PBS) (10 mM potassium phosphate buffer, sodium chloride concentration is 0.9%, pH 7.4). In methanol, indodicarbocyanine (A1, A8, A10-A12, A17, A23) has the upper-range of molar extinction coefficient (ε >[…]). In aqueous phosphate buffered saline (PBS), dyes (A10, A23, A30) have the maximal ε-value (Fig. 2).

[3] = Quantum efficiency of fluorescence, measured versus a reference dye
Method: For all indodicarbocyanine dyes (I) (A1) - (A30) and (B1) - (B7) of the invention, there are determined the quantum efficiency of fluorescence in methanol and in aqueous phosphate buffered saline (Table 1, Fig. 3). The measurements are performed versus dyes of formula (I) (R1= -CH3, R2= R6= -SO3^-; R3= -(CH2)5COOH, R4= -C2H5, R5= -H) whose quantum efficiency of fluorescence in PBS is 0.27 (Mader O., K. Reider, H.-J. Egelhaaaf, R, Fischer, R. Brock, Structure Properties of Pentamethine Indocyanine Dyes: Identification of New Dyes for Life Science Applications. Bioconjugate Chem, 2004, vol. 15, pp. 70-78). In methanol, dyes (A10, A22, A25, A29, A30) have the upper-range of quantum efficiency of fluorescence (Φ ∼ 0.3), but in PBS, dyes (A10, A22, A25, A29, A30) have the maximal Φ -value.

[4] = Relative efficiency of fluorescence / absolute sensitivity of label, normalized to dye A30 in PBS; details: for Sensitivity of record 655/ 690: excitation 655 nm, record 690 nm; for Sensitivity of record max/ max: excitation and record in absorption and fluorescence maxima, ε*Φ normalized to A30 in PBS; for Sensitivity of record 635/ 670: excitation 635 nm, record 670 nm
Description: The data obtained were as follows: • on excitation and record in absorption and fluorescence maxima, the relative efficiency of fluorescence exceeds 0.80 for dyes (A10), (A22), (A23), (A25), and (A30) in methanol and for dyes (A22), (A25), and (A30) in PBS (Table 1, Fig. 4), whereas for dyes of formula (I) (R1 = -CH3, R2= R6= -SO3^-; R3= -(CH2)5COOH, R4= -C2H5; R5= -H) the values are 0.69 in methanol and 0.67 in PBS; • on excitation at wavelength 655 nm and record at 690 nm, the relative efficiency of fluorescence exceeds 0.25 for dyes (A25) and (A30) in methanol and is higher than 0.18 for dyes (A24) and (A30) in PBS (Table 1, Fig. 5), whereas for dyes of formula (I) (R1 = -CH3, R2 = R6= -SO3^-; R3= -(CH2)5COOH, R4= -C2H5; R5= -H) the values are 0.18 in methanol and 0.11 in PBS; • on excitation at wavelength 635 nm and record at 670 nm, the relative efficiency of fluorescence exceeds 0.50 for dyes (A1), (A11), (A23) in methanol and is higher than 0.45 for dyes (A22), (A25), and (A30) in PBS (Table 1, Fig. 6), whereas for dyes of formula (I) (R1= -CH3, R2= R6= -SO3^-; R3= -(CH2)5COOH, R4= -C2H5; R5= -H) the values are 0.44 in methanol and 0.38 in PBS.
Term sensitivity of fluorescent analysis is defined by the absolute sensitivity of label that may be represented as the product of molar extinction coefficient by quantum efficiency of fluorescence (ε*Φ). Thus, there are determined the absolute sensitivity of indodicarbocyanines (A1-A30, B1-B7) in appropriate absorption and fluorescence maxima in methanol and in aqueous phosphate buffered saline. The values are normalized to the maximal value obtained for dye (A30) in PBS (Table 1). In methanol, dyes (A10, A22, A23, A25, A30) have the upper-range of absolute sensitivity, but in PBS, dyes (A10, A22, A25, A29, A30) have the maximal values of sensitivity (Fig. 4).
To determine the most appropriate dyes for instrument setting, there are measured the relative efficiency of fluorescence of dyes at wavelength of excitation and record of the instrument (655 nm. / 690 nm). The maximal values appear to be specific to dyes (A25) and (A30) in methanol, and to dyes (A19, A22, A25, A29, A30) in PBS (Table 1, Fig. 5).
There are also measured the relative efficiency of fluorescence at wavelength of excitation and record of the instrument (635 nm / 670 nm). The maximal values appear to be specific to dyes (A1, A10, A11, A23) in methanol, and to dyes (A10, A22, A25, A29, A30) in PBS (Table 1, Fig. 6).

[5] = PBS (10 mM potassium phosphate buffer, 0.9% sodium chloride, pH 7.4)

SMILES	Φ (quantum efficiency of fluorescence) ([3]; MeOH)	Φ (quantum efficiency of fluorescence) ([3]; PBS)	Sensitivity of record 635/ 670 ([4]; PBS)	Sensitivity of record 655/ 690 ([4]; PBS)	Sensitivity of record max/ max ([4]; PBS)	also measured
CCN1C(=CC=CC=CC2=[N+](CCCCS(=O)(=O)[O-])c3ccccc3C2(C)CCCCC(=O)O)C(C)(C)c2ccccc21 (stereo not shown) [A1, 3-(4-carboxybutyl)-N-(4-sulfobutyl)-3,3',3'-trimethyl-N'-ethylindodicarbocyanine]	0.25	0.13	0.123	0.153	0.372	λmax^abs ([1]; MeOH): 644 nm; λmax^em ([1]; MeOH): 662 nm; λmax^abs ([1]; PBS): 643 nm; λmax^em ([1]; PBS): 657 nm; ε·10^-5 ([2]; MeOH): 2.47±0.02; ε·10^-5 [2, 5]: 2.06±0.02; Sensitivity of record 655/ 690 ([4]; MeOH): 0.025; Sensitivity of record max/ max ([4]; MeOH): 0.737
CC[N+]1=C(/C=C/C=C/C=C2/N(CCCCS(=O)(=O)[O-])c3ccccc3C2(C)CCCCC(=O)O)C(C)(C)c2cc(C)ccc21 (stereo not shown) [A2, 3-(4-Carboxybutyl)-N-(4-sulfobutyl)-3,3',3',5'-tetramethyl-N'-ethylindodicarbocyanine]	0.17	0.09	0.184	0.068	0.261	λmax^abs ([1]; MeOH): 649 nm; λmax^em ([1]; MeOH): 667 nm; λmax^abs ([1]; PBS): 647 nm; λmax^em ([1]; PBS): 662 nm; ε·10^-5 ([2]; MeOH): 2.01±0.01; ε·10^-5 [2, 5]: 1.99±0.03; Sensitivity of record 635/ 670 ([4]; MeOH): 0.320; Sensitivity of record 655/ 690 ([4]; MeOH): 0.149; Sensitivity of record max/ max ([4]; MeOH): 0.442
CC[N+]1=C(/C=C/C=C/C=C2/N(CCCCS(=O)(=O)[O-])c3ccccc3C2(C)CCCCC(=O)O)C(C)(C)c2cc(C)cc(C)c21 (stereo not shown) [A3, 3-(4-Carboxybutyl)-3,3',3',5',7'-pentamethyl-N-(4-sulfobutyl)-N'-ethylindodicarbocyanine]	0.12	0.08	0.132	0.069	0.199	λmax^abs ([1]; MeOH): 652 nm; λmax^em ([1]; MeOH): 670 nm; λmax^abs ([1]; PBS): 650 nm; λmax^em ([1]; PBS): 665 nm; ε·10^-5 ([2]; MeOH): 1.93±0.01; ε·10^-5 [2, 5]: 1.84±0.01; Sensitivity of record 635/ 670 ([4]; MeOH): 0.210; Sensitivity of record 655/ 690 ([4]; MeOH): 0.138; Sensitivity of record max/ max ([4]; MeOH): 0.314
CC1(C)C(C=CC=CC=C2N(CCCCS(=O)(=O)O)c3ccccc3C2(C)CCCCC(=O)O)=[N+](CCCCS(=O)(=O)[O-])c2ccccc21 (stereo not shown) [A10, N,N'-di(4-sulfobutyl)-3-(4-carboxybutyl)-3,3',3'-trimethylindodicarbocyanine, sodium salt]	~0.3	maximal	maximal	–	maximal	Sensitivity of record 635/ 670 ([4]; MeOH): maximal
Cc1ccc2c(c1)C(C)(CCCCC(=O)O)C(C=CC=CC=C1N(CCCCS(=O)(=O)[O-])c3ccccc3C1(C)C)=[N+]2CCCCS(=O)(=O)[O-].[Na+] (stereo not shown) [A17, N,N'-di(4-sulfobutyl)-3-(4-carboxybutyl)-3,3',3',5-tetramethylindodicarbocyanine, sodium salt]	–	–	–	–	–	molar extinction coefficient (ε) ([2]; in methanol): > 220000 M⁻¹ cm⁻¹
Cc1ccc2c(c1)C(C)(C)C(=CC=CC=CC1=[N+](CCCCS(=O)(=O)[O-])c3ccc(C)cc3C1(C)CCCCC(=O)O)N2CCCCS(=O)(=O)[O-].[Na+] (stereo not shown) [A19, N,N'-di(4-sulfobutyl)-3-(4-carboxybutyl)-3,3',3',5,5'-pentamethylindodicarbocyanine, sodium salt]	–	–	–	maximal	–	–
CCN1C(=CC=CC=CC2=[N+](CC)c3ccc(S(=O)(=O)[O-])cc3C2(C)CCCCC(=O)O)C(C)(C)c2cc(S(=O)(=O)[O-])ccc21.[Na+] (stereo not shown) [A22, 5,5'-disulfo-N,N'-diethyl-3-(4-carboxybutyl)-3,3',3'-trimethylindodicarbocyanine, sodium salt]	~0.3	maximal	–	maximal	–	–
CC1(C)C(/C=C/C=C/C=C2/N(CCCCS(=O)(=O)O)c3ccccc3C2(C)CCCCC(=O)O)=[N+](CCCCS(=O)(=O)O)c2ccc(S(=O)(=O)[O-])cc21 (stereo not shown) [A23, N,N'-di(4-sulfobutyl)-3-(4-carboxybutyl)-5'-sulfo-3,3',3'-trimethylindodicarbocyanine, disodium salt]	–	–	–	–	–	molar extinction coefficient (ε) ([2]; in aqueous phosphate buffered saline (PBS)): maximal
CC1(C)C(=CC=CC=CC2=[N+](CCCCS(=O)(=O)[O-])c3ccc(S(=O)(=O)[O-])cc3C2(C)CCCCC(=O)O)N(CCCCS(=O)(=O)[O-])c2ccccc21.[Na+].[Na+] (stereo not shown) [A24, N,N'-di(4-sulfobutyl)-3-(4-carboxybutyl)-5-sulfo-3,3',3'-trimethylindodicarbocyanine, disodium salt]	–	–	–	higher than 0.18	–	–
CC[N+]1=C(/C=C/C=C/C=C2/N(CCCCS(=O)(=O)O)c3ccc(S(=O)(=O)[O-])cc3C2(C)CCCCC(=O)O)C(C)(C)c2cc(S(=O)(=O)O)ccc21 (stereo not shown) [A25, 5,5'-disulfo-3-(4-carboxybutyl)-N-(4-sulfobutyl)-3,3',3'-trimethyl-N'-ethylindodicarbocyanine, disodium salt]	–	–	–	maximal	–	–
CCN1/C(=C/C=C/C=C/C2=[N+](CCCCS(=O)(=O)O)c3ccc(S(=O)(=O)O)cc3C2(C)C)C(C)(CCCCC(=O)O)c2cc(S(=O)(=O)[O-])ccc21 (stereo not shown) [A29, 5,5'-disulfo-3-(4-carboxybutyl)-N'-(4-sulfobutyl)-3,3';3'-trimethyl-N-ethylindodicarbocyanine, disodium salt]	–	maximal	maximal	maximal	maximal	–
Cc1ccc2c(c1)C(C)(C)C(=CC=CC=CC1=[N+](CCCCS(=O)(=O)[O-])c3ccc(CCC(=O)O)cc3C1(C)C)N2CCCCS(=O)(=O)[O-].[Na+] [B4, N,N'-disulfobutyl-5-carboxyethyl-3,3,3',3',5'-pentamethylindodicarbocyanine, sodium salt]	0.19	–	–	–	–	–
CC1(C)C(=CC=CC=CC2=[N+](CCCCS(=O)(=O)[O-])c3ccc(CCC(=O)O)cc3C2(C)C)N(CCCCS(=O)(=O)[O-])c2ccccc21.[Na+] [B5, N,N'-disulfobutyl-5-carboxyethyl-3,3,3',3'-tetramethylindodicarbocyanine, sodium salt]	0.17	–	–	–	–	molar extinction coefficient ([2]; solvent not stated): about 200,000
